The results in this text go back to patent US20050256302A1, “Novel peptides having camp producing activity” (Japan Science and Technology Agency, priority 2002, published 2005).

Test [1] has as its system amyloride-sensitive Na/H co-transporter on LLC-PK1 cells. The test can be described thus: Incorporation of sodium ion (22Na) in LLC-PK1 cells, with or without EIPA. In kind it is cell-based, pig. The note with it: 10 minutes. As for the experimental part: A culture solution of LLC-PK1 cells was substituted with a Hanks' choline chloride solution, CRSP and sodium chloride having a predetermined radioactivity (^22Na) were added thereto so as to make the final concentration 0 M, 10^−8 M, 10^−7 M and 10^−6 M each, the cells were washed after 10 minutes so that ^22Na contained in the solution outside the cells was completely removed and radioactivity incorporated into the cells was measured by a gamma-counter. Similarly, a culture solution of LLC-PK1 cells was substituted with a Hanks' choline chloride solution, sodium chloride having a predetermined radioactivity (^22Na) as well as CRSP and an amyloride derivative (5-(N-ethyl-N-isopropyl)-amiloride) (EIPA) which is an Na/H co-transporter inhibitor were added thereto so as to make the final concentration 0 M CRSP+0 M EIPA, 10^−6 M CRSP+0 M EIPA, 10^−6 M CRSP+10^−8 M EIPA, 10^−6 M CRSP+10^−7 M EIPA, 10^−6 M CRSP+10^−6 M EIPA and 0 M CRSP+10^−6 M EIPA each. Cells were washed after 10 minutes so that ^22Na contained in the outer solution of the cells was completely removed and radioactivity incorporated into the cells was measured by a gamma-counter.
The results are shown in FIG. 5 (incorporation of sodium ion in the absence of EIPA), FIG. 6 (incorporation of sodium ion in the presence of EIPA) and FIG. 7 (incorporation of calcium ion). […]

The test system of test [2] is LLC-PK1 cells. Put plainly: Incorporation of calcium ion (45Ca) in LLC-PK1 cells. In kind it is cell-based, pig. The note with it: 10 minutes. Here is the method:
The results are shown in FIG. 5 (incorporation of sodium ion in the absence of EIPA), FIG. 6 (incorporation of sodium ion in the presence of EIPA) and FIG. 7 (incorporation of calcium ion).
Incorporation of calcium ion was conducted as follows. Thus, LLC-PK1 cells were washed with a Hanks' solution (calcium-free Hanks' solution) where concentration of calcium chloride was lowered to 0 mM. Calcium chloride (^45Ca) was added to a calcium-free Hanks' solution on the cells together with CRSP, the cells were washed after 10 minutes to completely wash out ^45Ca contained in the solution outside the cells and radioactivity incorporated into the cells was measured by a liquid scintillation counter.

For test [3], the target named is T1, Pig calcitonin receptor (CTR) (Sus scrofa, UniProt P25117).
T1 construct: expressed in transfected cells; host or cells: COS-7 (given as rhesus monkey renal cells), vector pcDNA 3.1
T1 sequence (P25117 30-498): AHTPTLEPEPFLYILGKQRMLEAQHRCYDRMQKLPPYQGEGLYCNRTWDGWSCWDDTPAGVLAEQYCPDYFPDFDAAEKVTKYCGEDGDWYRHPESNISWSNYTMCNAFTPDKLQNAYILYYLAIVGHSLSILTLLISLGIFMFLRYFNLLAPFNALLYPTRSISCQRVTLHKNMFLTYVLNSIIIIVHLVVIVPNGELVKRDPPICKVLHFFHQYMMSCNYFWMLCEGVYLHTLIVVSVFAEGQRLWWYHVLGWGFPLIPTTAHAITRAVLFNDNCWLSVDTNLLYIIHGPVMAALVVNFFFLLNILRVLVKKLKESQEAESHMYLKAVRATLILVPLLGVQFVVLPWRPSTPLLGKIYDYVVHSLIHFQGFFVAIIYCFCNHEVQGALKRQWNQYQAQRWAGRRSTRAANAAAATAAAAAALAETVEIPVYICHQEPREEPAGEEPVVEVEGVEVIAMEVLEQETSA
The test can be described thus: cAMP production in opossum renal epithelial cells (OK cells) expressing CTR. The note with it: CTR expressed in OK cells. The test is classed as cell-based. Here is the method: Pig calcitonin receptor (CTR) was introduced into a mammalian expression vector pcDNA 3.1, expressed in rhesus monkey renal cells (COS-7) and production amount of cAMP by stimulation of CRSP was measured by radioimmunoassay. Similarly, CTR was expressed in opossum renal cells (OK cells) and production amount of cAMP by stimulation of CRSP was measured by radioimmunoassay while incorporation of sodium ion was measured by measuring the incorporation of sodium chloride having radioactivity (^22Na) by a gamma-counter. The results are shown in FIG. 10 (changes in cAMP productivity by CRSP stimulation in cells (COS-7) where calcitonin receptor was expressed in a genetic engineering manner), FIG. 11 (changes in cAMP productivity in opossum renal epithelial cells where pig calcitonin receptor (CTR) was expressed) and FIG. 12 (changes in incorporation of sodium ion in opossum renal epithelial cells where pig calcitonin receptor (CTR) was expressed).
Similarly, CTR was expressed in opossum renal cells (OK cells) and production amount of cAMP by CRSP stimulation was measured by radioimmunoassay while incorporation of sodium ion was measured by incorporation of radioactive sodium chloride (^22Na) using a gamma-counter.

Where a SMILES comes first, the peptide text is derived from it. Bridges are numbered along the chain shown (N, C = ends).

`CSCC[C@H](NC(=O)[C@H](CCCCN)NC(=O)[C@@H](NC(=O)[C@@H]1CCCN1C(=O)[C@H](CC(C)C)NC(=O)[C@H](CC(C)C)NC(=O)[C@H](CC(N)=O)NC(=O)[C@H](CO)NC(=O)[C@H](CCCNC(=N)N)NC(=O)[C@@H](NC(=O)[C@H](CCSC)NC(=O)[C@H](CO)NC(=O)CNC(=O)[C@H](CO)NC(=O)[C@H](CCCNC(=N)N)NC(=O)[C@H](CO)NC(=O)[C@H](CC(C)C)NC(=O)[C@H](CC(C)C)NC(=O)CNC(=O)[C@@H](NC(=O)[C@H](CC(C)C)NC(=O)[C@H](CCCNC(=N)N)NC(=O)[C@H](Cc1c[nH]cn1)NC(=O)[C@@H](NC(=O)[C@H](CCSC)NC(=O)[C@@H]1CSSC[C@H](NC(=O)[C@@H](N)CO)C(=O)N[C@@H](CC(N)=O)C(=O)N[C@@H]([C@@H](C)O)C(=O)N[C@@H](C)C(=O)N[C@@H]([C@@H](C)O)C(=O)N1)[C@@H](C)O)C(C)C)C(C)C)[C@@H](C)O)C(=O)NCC(=O)N[C@@H](Cc1ccccc1)C(=O)N[C@@H](CCCCN)C(=O)N[C@H](C(=O)N[C@@H](Cc1ccccc1)C(=O)NCC(N)=O)C(C)C` [CRSP] (H-SCNTATCMTHRLVGLLSRSGSMVRSNLLPTKMGFKVFG-NH2; disulfide 2-7): in test [1] (10^-8 to 10^-6 M), the “incorporation of sodium into cells” value was “promoted”. The “amyloride-sensitive Na/H co-transporter” value in test [1] is on record as “activated”. For the same molecule, the “incorporation of calcium into cells” value in test [2] is listed as “suppressed”. The “intracellular adenylyl cyclase activity” value in test [3] is “increases”.
